Test results from ChEMBL document CHEMBL1127872, “Discovery and development of aryl-fused imidazole-based angiotensin II antagonists” (Bioorg Med Chem Lett, 1994).

Assays:
[1] = molecular target: Angiotensin II receptor (Rattus norvegicus) (UniProt P29089+P25095+P35351); assay: In vivo antagonism of Angiotensin II induced dose-pressor response in male rats.; format: functional, organism-based
Oryctolagus cuniculus = organism: Oryctolagus cuniculus; assay: Potency of the Angiotensin II-induced contraction of rabbit aortic strips; format: functional, Aorta; conditions: for Kb: Oryctolagus cuniculus, Aorta, read-out: pA2 (converted)
[2] = molecular target: T1, Type-1 angiotensin II receptor (Bos taurus, UniProt P25104); assay: Inhibition of [125I][Ile5]-AII binding to bovine adrenal cortex membrane Angiotensin II receptor type 1; format: tissue-based
T1 sequence (P25104 whole entry): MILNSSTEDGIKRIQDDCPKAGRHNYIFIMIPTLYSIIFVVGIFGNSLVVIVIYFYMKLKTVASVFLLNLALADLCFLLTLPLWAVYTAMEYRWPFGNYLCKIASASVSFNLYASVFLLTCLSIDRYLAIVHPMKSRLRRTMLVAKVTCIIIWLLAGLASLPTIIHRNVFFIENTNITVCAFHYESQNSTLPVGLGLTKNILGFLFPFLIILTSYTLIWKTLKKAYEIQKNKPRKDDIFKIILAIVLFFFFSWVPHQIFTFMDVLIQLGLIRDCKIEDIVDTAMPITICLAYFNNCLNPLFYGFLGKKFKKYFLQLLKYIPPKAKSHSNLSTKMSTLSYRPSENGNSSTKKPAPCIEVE

Row | ED2 [1] [mg/kg] | IC50 [2] [nM] | SMILES | Kb (Oryctolagus cuniculus) [nM] | pA2 (Oryctolagus cuniculus)
1 | 0.25 |  | Cc1ccnc2c1nc(C1CCC1)n2Cc1ccc(-c2ccccc2C(=O)O)cc1 | 5.01 | 
2 | 1.3 |  | Cc1ccnc2c1nc(C)n2Cc1ccc(-c2ccccc2C(=O)O)cc1 | 50.1 | 
3 | 0.075 |  | Cc1ccnc2c1nc(C1CC1)n2Cc1ccc(-c2ccccc2C(=O)O)cc1 | 2 | 
4 | 0.35 |  | C/C=C/c1nc2c(C)ccnc2n1Cc1ccc(-c2ccccc2C(=O)O)cc1 | 5.01 | 
5 | 0.65 |  | COCc1nc2c(C)ccnc2n1Cc1ccc(-c2ccccc2C(=O)O)cc1 | 79.4 | 
6 | 0.28 |  | CCCCc1nc(Cl)c(CO)n1Cc1ccc(-c2ccccc2-c2nnn[nH]2)cc1 [LOSARTAN] | 2.51 | 
7 | 0.84 |  | Cc1ccnc2c1nc(C(C)C)n2Cc1ccc(-c2ccccc2C(=O)O)cc1 | 31.6 | 
8 | 0.41 |  | CCSc1nc2c(C)ccnc2n1Cc1ccc(-c2ccccc2C(=O)O)cc1 | 5.01 | 
9 | 0.45 |  | CCCCc1nc2c(C)ccnc2n1Cc1ccc(-c2ccccc2C(=O)O)cc1 | 7.94 | 
10 | 0.66 |  | CCCc1nc2c(Cl)ccnc2n1Cc1ccc(-c2ccccc2C(=O)O)cc1 | 7.94 | 
11 | 0.29 |  | CCc1nc2c(C)ccnc2n1Cc1ccc(-c2ccccc2C(=O)O)cc1 | 1.26 | 
12 | 0.97 |  | CSc1nc2c(C)ccnc2n1Cc1ccc(-c2ccccc2C(=O)O)cc1 | 10 | 
13 | 0.16 |  | CCCc1nc2c(C)ccnc2n1Cc1ccc(-c2ccccc2C(=O)O)cc1 | 3.16 | 8.5

Continued, compound first:

Row | SMILES | ED2 [1] [mg/kg] | IC50 [2] [nM] | Kb (Oryctolagus cuniculus) [nM] | pA2 (Oryctolagus cuniculus)
14 | CCCCc1nc2ccccc2n1Cc1cc(Cl)c(O)c(Cl)c1 | 6.5 | 3200 | 63.1 | 
15 | CCCCc1nc2cccnc2n1Cc1cc(Cl)c(O)c(Cl)c1 | 1.9 |  | 63.1 | 
16 | CCCCc1nc2c(C)cccc2n1Cc1cc(Cl)c(O)c(Cl)c1 | 1.3 |  | 20 | 
17 | CCCCc1nc2ccccc2n1Cc1cc(C(C)(C)C)c(O)c(C(C)(C)C)c1 |  | > 100000 |  | 
18 | CCCc1nc2cccnc2n1Cc1cc(Cl)c(O)c(Cl)c1 | 0.65 |  | 31.6 | 
19 | CCCCc1nc2ccccc2n1Cc1ccc(I)c(O)c1I |  | 33000 |  | 
20 | CCCCc1nc2ccccc2n1Cc1cc(I)c(O)c(I)c1 |  | 1500 |  | 
21 | Cc1ccnc2c1nc(C1CC1)n2Cc1cc(Cl)c(O)c(Cl)c1 | 0.079 |  | 2 | 
22 | CCCCc1nc2ccccc2n1Cc1ccc(O)c(C)c1 |  | 20000 |  | 
23 | CCCCc1nc2ccccc2n1Cc1cc([N+](=O)[O-])c(O)c([N+](=O)[O-])c1 |  | 1600 |  | 
24 | CCCc1nc2c(C)ccnc2n1Cc1cc(Cl)c(O)c(Cl)c1 | 0.15 |  | 1.26 | 
25 | O=C(O)c1ccccc1-c1ccc(Cn2c(C3CC3)nc3c(C(=O)O)ccnc32)cc1 |  |  | 25.1 | 
26 | Oc1c(Cl)cc(Cn2c(C3CC3)nc3ncccc32)cc1Cl |  |  | 631 | 
27 | CCCCc1nc2ccccc2n1Cc1cc(C)c(O)c(C)c1 |  | 4700 |  | 
28 | O=C(O)c1ccccc1-c1ccc(Cn2c(C3CC3)nc3c(CO)ccnc32)cc1 |  |  | 10 | 
29 | CCCCc1nc2ccccc2n1Cc1cc(C)c(O)c([N+](=O)[O-])c1 |  | 2200 |  | 
30 | CCCCc1nc2ccccc2n1CCc1cc(I)c(O)c(I)c1 |  | 81000 |  | 
31 | CCCc1nc2cccnc2n1Cc1ccc(-c2ccccc2C(=O)O)cc1 |  |  | 39.8 | 
32 | CCCCc1nc2ncccc2n1Cc1cc(Cl)c(O)c(Cl)c1 |  |  | 398 | 
33 | Cc1ccnc2c1nc(CCCO)n2Cc1ccc(-c2ccccc2C(=O)O)cc1 |  |  | 501 | 
34 | CCCCc1nc2c(C)ccnc2n1Cc1cc(Cl)c(O)c(Cl)c1 | 0.55 |  | 10 | 
35 | CCCCc1nc2ccccc2n1Cc1ccc(O)cc1 |  | 8500 |  | 
36 | CCCCc1nc2ccccc2n1Cc1cc(C)c(O)c(I)c1 |  | 2200 |  | 
37 | CCCc1nc2ncccc2n1Cc1cc(Cl)c(O)c(Cl)c1 |  |  | 794 | 
38 | CCCCc1nc2ccccc2n1Cc1cc(Br)c(O)c(Br)c1 |  | 2500 |  | 
39 | Oc1c(Cl)cc(Cn2c(C3CC3)nc3cccnc32)cc1Cl | 0.48 |  | 20 | 
